Results on 41 compounds are retold here after patent publication US11452717B2, “Small molecule activators of nicotinamide phosphoribosyltransferase (NAMPT) and uses thereof” (Sanford Burnham Prebys Medical Discovery Institute, priority 2017, dated 2022).

Test [1] concerns human smooth muscle cells. The note with it: serial quantification of the proportion of cells with senescence-associated beta-galactosidase activity; cited from earlier work.
The next test addresses NAMPT enzyme (Homo sapiens (Human), UniProt P43490). In words: Enzyme Assay and NMN Detection (NAMPT reaction, fluorescence detection of NMN). It is filed as biochemical. The conditions noted are these: NAMPT activation, NMN formation. A digest of the protocol:
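NMN formed was read at ex380/em460 after acetophenone/KOH derivatization and formic acid addition, using a same-day calibration curve. Final conditions: NAMPT 16 nM, nicotinamide 5 uM, PRPP 6.25 uM, ATP 120 uM, pyrophosphatase 0.04 U/ml, pH 7.5 HEPES buffer with MgCl2 and TCEP, 2 h at room temperature.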

The conditions of test [2]: adult mice, specific deletion of NAMPT; administration of the NAD precursor; cited from earlier work.

Sequence of NAMPT enzyme (P43490 whole entry, species assumed): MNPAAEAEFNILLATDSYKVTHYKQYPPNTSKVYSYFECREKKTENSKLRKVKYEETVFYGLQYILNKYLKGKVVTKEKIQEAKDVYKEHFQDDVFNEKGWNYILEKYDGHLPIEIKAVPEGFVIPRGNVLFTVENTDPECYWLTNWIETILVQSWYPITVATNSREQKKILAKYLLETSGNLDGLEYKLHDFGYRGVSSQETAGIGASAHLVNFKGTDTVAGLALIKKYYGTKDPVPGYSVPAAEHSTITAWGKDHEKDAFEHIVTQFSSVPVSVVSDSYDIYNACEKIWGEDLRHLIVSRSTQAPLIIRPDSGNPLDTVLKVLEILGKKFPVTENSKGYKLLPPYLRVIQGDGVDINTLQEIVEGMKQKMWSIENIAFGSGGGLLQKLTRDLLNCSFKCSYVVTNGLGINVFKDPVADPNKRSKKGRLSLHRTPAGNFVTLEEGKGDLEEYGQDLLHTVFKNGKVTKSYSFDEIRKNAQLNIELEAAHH

For `O=C(/C=C/c1cccnc1)NCCCCC1CCN(C(=O)c2ccccc2)CC1` [FK866], the “senescence in smooth muscle cells” value in test [1] is on record as “induced premature senescence”. For orientation: EC50 means the concentration giving half of the maximal effect. Higher therefore signals weaker potency. For `Cc1ccccc1CN(C)S(=O)(=O)c1ccc(NC(=O)NCc2ccncc2)cc1` [N-Methyl-N-(2-methyl-benzyl)-4-(3-pyridin-4-ylmethyl-ureido)-benzenesulfonamide], on NAMPT enzyme (Table B-2), the EC50 is less than 100 nM. For the compound `CN(c1ccc(NC(=O)NCc2ccncc2)cc1)S(=O)(=O)c1ccccc1` [N-Methyl-N-[4-(3-pyridin-4-ylmethyl-ureido)-phenyl]-benzenesulfonamide], the EC50 on NAMPT enzyme (Table B-2) was in the range of 100 to 2000 nM. Still for that read-out and setting: in the case of `CN(c1ccccc1)S(=O)(=O)Cc1ccc(NC(=O)NCc2ccncc2)cc1` [N-Methyl-N-phenyl-C-[4-(3-pyridin-4-ylmethyl-ureido)-phenyl]-methanesulfonamide] it was 100 to 2000 nM; in that of `O=C(NCc1ccncc1)Nc1ccc(S(=O)(=O)Nc2ccccc2)cc1` [N-Phenyl-4-(3-pyridin-4-ylmethyl-ureido)-benzenesulfonamide], 100 to 2000 nM. In the case of `O=C(NCc1cn[nH]c1)Nc1ccc(S(=O)(=O)Nc2ccccc2)cc1` [N-Phenyl-4-[3-(1H-pyrazol-4-ylmethyl)-ureido]-benzenesulfonamide], the EC50 at NAMPT enzyme (Table B-1) fell in the range of 100 to 2000 nM. On to `O=C(NCc1ccncc1)Nc1ccc(CS(=O)(=O)Nc2ccccc2)cc1` [N-Phenyl-C-[4-(3-pyridin-4-ylmethyl-ureido)-phenyl]-methanesulfonamide], for which the concentration for a half-maximal effect (EC50) at NAMPT enzyme (Table B-2) lay within 100 to 2000 nM.

The compound `CCCNS(=O)(=O)c1ccc(NC(=O)NCc2ccncc2)cc1` [N-Propyl-4-(3-pyridin-4-ylmethyl-ureido)-benzenesulfonamide] returned an EC50 at NAMPT enzyme (Table B-2) of 100 to 2000 nM.

At NAMPT enzyme (Table B-2), `O=C(NCc1ccncc1)Nc1ccc(S(=O)(=O)Nc2ccccn2)cc1` [N-Pyridin-2-yl-4-(3-pyridin-4-ylmethyl-ureido)-benzenesulfonamide] yielded an EC50 greater than 20000 nM. Same read-out and setting: the figure for `O=C(NCc1ccncc1)Nc1ccc(S(=O)(=O)NCc2ccncc2)cc1` [N-Pyridin-4-ylmethyl-4-(3-pyridin-4-ylmethyl-ureido)-benzenesulfonamide] is 100 to 2000 nM.

On NAMPT enzyme (Table B-2), `CN1CCN(CCNS(=O)(=O)c2ccc(NC(=O)NCc3ccncc3)cc2)CC1` [N-[2-(4-Methyl-piperazin-1-yl)-ethyl]-4-(3-pyridin-4-ylmethyl-ureido)-benzenesulfonamide] returned an EC50 of 100 to 2000 nM. On the same count and under the same terms, the figure for `O=C(NCc1ccccc1)Nc1ccc(NS(=O)(=O)Cc2ccccc2)cc1` [N-[4-(3-Benzyl-ureido)-phenyl]-C-phenyl-methanesulfonamide] is less than 100 nM.

At NAMPT enzyme (Table B-1), `O=C(NCc1cnco1)Nc1ccc(NS(=O)(=O)c2ccccc2)cc1` [N-[4-(3-Oxazol-5-ylmethyl-ureido)-phenyl]-benzenesulfonamide] showed an EC50 of 100 to 2000 nM.

At NAMPT enzyme (Table B-6), `Cc1cccc(CS(=O)(=O)Nc2ccc(NC(=O)NCc3ccncc3)cc2)c1` [N-[4-(3-Pyridin-4-ylmethyl-ureido)-phenyl]-C-m-tolyl-methanesulfonamide] came in with a 50% effective concentration (EC50) of less than 100 nM. For the compound `Cc1ccc(CS(=O)(=O)Nc2ccc(NC(=O)NCc3ccncc3)cc2)cc1` [N-[4-(3-Pyridin-4-ylmethyl-ureido)-phenyl]-C-p-tolyl-methanesulfonamide], the EC50 at NAMPT enzyme (Table B-6) was less than 100 nM. On NAMPT enzyme (Table B-2), `O=C(NCc1ccncc1)Nc1ccc(NS(=O)(=O)c2ccccc2)cc1` [N-[4-(3-Pyridin-4-ylmethyl-ureido)-phenyl]-benzenesulfonamide] yielded an EC50 of less than 100 nM.

On NAMPT enzyme (Table B-2), `O=C(NCc1ccncc1)Nc1cccc(S(=O)(=O)NCc2ccccc2)c1` [N-benzyl-3-(3-(pyridin-4-ylmethyl)ureido)benzenesulfonamide] yielded an EC50 of 5000 to 20000 nM.

At NAMPT enzyme (Table B-2), `CN(Cc1ccccc1)C(=O)c1ccc(NC(=O)NCc2ccncc2)cc1` [N-benzyl-N-methyl-4-(3-(pyridin-4-ylmethyl)ureido)benzamide] displayed an EC50 of 100 to 2000 nM.

`CCCCNC(=O)c1ccc(NC(=O)NCc2ccncc2)cc1` [N-butyl-4-(3-(pyridin-4-ylmethyl)ureido)benzamide]: the EC50 on NAMPT enzyme (Table B-2) lay in the range of 100 to 2000 nM. Same read-out and setting: the figure for `O=C(NCc1ccncc1)Nc1ccc(C(=O)NC2CCC2)cc1` [N-cyclobutyl-4-(3-(pyridin-4-ylmethyl)ureido)benzamide] is 5000 to 20000 nM; for `O=C(NCc1ccncc1)Nc1ccc(C(=O)NC2CCCCC2)cc1` [N-cyclohexyl-4-(3-(pyridin-4-ylmethyl)ureido)benzamide] it is 2000 to 5000 nM. Compound `O=C(NCc1ccncc1)Nc1cccc(S(=O)(=O)NC2CCCC2)c1` [N-cyclopentyl-3-(3-(pyridin-4-ylmethyl)ureido)benzenesulfonamide] returned a 50% effective concentration (EC50) at NAMPT enzyme (Table B-2) greater than 20000 nM. Same read-out and setting: in the case of `O=C(NCc1ccncc1)Nc1ccc(C(=O)NC2CCCC2)cc1` [N-cyclopentyl-4-(3-(pyridin-4-ylmethyl)ureido)benzamide] it was 5000 to 20000 nM. At NAMPT enzyme (Table B-2), `O=C(NCc1ccncc1)Nc1ccc(S(=O)(=O)NC2CCCC2)cc1` [N-cyclopentyl-4-(3-pyridin-4-ylmethyl-ureido)-benzenesulfonamide] registered an EC50 of 100 to 2000 nM. The compound `CCN(C)C(=O)c1ccc(NC(=O)NCc2ccncc2)cc1` [N-ethyl-N-methyl-4-(3-(pyridin-4-ylmethyl)ureido)benzamide] returned a concentration for a half-maximal effect (EC50) at NAMPT enzyme (Table B-2) of 5000 to 20000 nM.

On to `CC(C)CNC(=O)c1ccc(NC(=O)NCc2ccncc2)cc1` [N-isobutyl-4-(3-(pyridin-4-ylmethyl)ureido)benzamide], for which, at NAMPT enzyme (Table B-2), the EC50 fell in the range of 100 to 2000 nM.

For `CN(Cc1ccccc1C(F)(F)F)S(=O)(=O)c1ccc(NC(=O)NCc2ccncc2)cc1` [N-methyl-4-(3-(pyridin-4-ylmethyl)ureido)-N-(2-(trifluoromethyl)benzyl)benzenesulfonamide], the EC50 on NAMPT enzyme (Table B-2) is less than 100 nM. On to `Cc1ccc(N(C)C(=O)c2ccc(NC(=O)NCc3ccncc3)cc2)cc1` [N-methyl-4-(3-(pyridin-4-ylmethyl)ureido)-N-(p-tolyl)benzamide], for which the concentration giving a half-maximal response (EC50) on NAMPT enzyme (Table B-2) is 5000 to 20000 nM. Still for that read-out and setting: in the case of `CN(c1ccc(NC(=O)NCc2ccncc2)cc1)S(=O)(=O)Cc1ccccc1` [N-methyl-C-phenyl-N-[4-(3-pyridin-4-ylmethyl-ureido)-phenyl]-methanesulfonamide] it was less than 100 nM. `CCCN(C)C(=O)c1ccc(NC(=O)NCc2ccncc2)cc1` [N-methyl-N-propyl-4-(3-(pyridin-4-ylmethyl)ureido)benzamide] returned a concentration giving a half-maximal response (EC50) on NAMPT enzyme (Table B-2) of 5000 to 20000 nM. For `CC(C)(C)CNS(=O)(=O)c1ccc(NC(=O)NCc2ccncc2)cc1` [N-neopentyl-4-(3-pyridin-4-ylmethyl-ureido)-benzenesulfonamide], the concentration giving a half-maximal response (EC50) on NAMPT enzyme (Table B-2) lay within 100 to 2000 nM. At NAMPT enzyme (Table B-2), `O=C(NCc1ccncc1)Nc1cccc(S(=O)(=O)NCCc2ccccc2)c1` [N-phenethyl-3-(3-(pyridin-4-ylmethyl)ureido)benzenesulfonamide] displayed a half-maximal effective concentration (EC50) greater than 20000 nM. Same read-out and setting: in the case of `O=C(NCc1ccncc1)Nc1ccc(C(=O)NCCc2ccccc2)cc1` [N-phenethyl-4-(3-(pyridin-4-ylmethyl)ureido)benzamide] it was 100 to 2000 nM; in that of `O=C(NCc1ccncc1)Nc1ccc(C(=O)Nc2ccccc2)cc1` [N-phenyl-4-(3-(pyridin-4-ylmethyl)ureido)benzamide], 2000 to 5000 nM. On the same count and under the same terms, in the case of `CCCNC(=O)c1ccc(NC(=O)NCc2ccncc2)cc1` [N-propyl-4-(3-(pyridin-4-ylmethyl)ureido)benzamide] it was 2000 to 5000 nM. For the compound `O=C(NCc1cn[nH]c1)Nc1ccc(NS(=O)(=O)c2ccccc2)cc1` [N-{4-[3-(1H-Pyrazol-4-ylmethyl)-ureido]-phenyl}-benzenesulfonamide], the EC50 on NAMPT enzyme (Table B-1) was less than 100 nM. On NAMPT enzyme (Table B-2), `O=C(NCc1ccncc1)Nc1ccc(S(=O)(=O)N2CCc3cc(C(F)(F)F)ccc3C2)cc1` [Pyridin-4-ylmethyl-3-[4-(6-trifluoromethyl-3,4-dihydro-1H-isoquinoline-2-sulfonyl)-phenyl]-urea] had a concentration for a half-maximal effect (EC50) of 100 to 2000 nM. The same measure, in the same setting: in the case of `O=C(NCc1ccncc1)Nc1ccc(S(=O)(=O)N2CCc3cccc(C(F)(F)F)c3C2)cc1` [Pyridin-4-ylmethyl-3-[4-(8-trifluoromethyl-3,4-dihydro-1H-isoquinoline-2-sulfonyl)-phenyl]-urea] it was 100 to 2000 nM; in that of `O=C(NCc1ccncc1)Nc1ccc(S(=O)(=O)N2CCCC2)cc1` [Pyridin-4-ylmethyl-3-[4-(pyrrolidine-1-sulfonyl)-phenyl]-urea], 100 to 2000 nM.

`O=C(NCc1ccncc1)Nc1ccc(S(=O)(=O)c2nccs2)cc1` [Pyridin-4-ylmethyl-3-[4-(thiazole-2-sulfonyl)-phenyl]-urea] registered a concentration giving a half-maximal response (EC50) on NAMPT enzyme (Table B-6) of 100 to 2000 nM.

For `NC(=O)c1ccc[n+]([C@@H]2O[C@H](CO)[C@@H](O)[C@H]2O)c1` [nicotinamide riboside], the “exercise performance, mass and strength of muscle” value in test [2] was “rapidly and uniformly restored”.
